Source: US8685924B2, “Preventives/remedies for stress urinary incontinence and method of screening the same” (Takeda Pharmaceutical Company Limited, priority 2004, dated 2014)

What was measured:
Format in all cases: in vivo, rat
[1] = tested on: urethane-anesthetized female rats; assay: Antagonism of the leak point pressure increase by WAY-161503 / WAY-163909, abdominal wall-electrically stimulating method (Example 3); settings: agonist 0.3 mg/kg, i.v., antagonist: solvent, mean ± SEM
Method: (§1) SD female rats (body weight 180-350 g) were anesthetized with urethane (Wako Pure Chemical Industries, Ltd.), and the spinal cord was transected at T8-9 level to eliminate the reflex voiding. In addition, the nerve to the iliococcygeus muscle/pubococcygeus muscle on the one side was transected. During operation, halothane (Takeda Pharmaceutical Company Limited) anesthesia was added when necessary. A catheter (PE-90, Clay Adams) was inserted into the bladder and secured with a ligature, and the incised part of each of the abdominal muscle and skin was closed with sutures. The abdominal skin near the diaphragm was incised at two left and right positions to newly expose the abdominal muscle. An Evans Blue dye (Merck) solution was injected into the bladder, and the bladder volume was adjusted to 0.2-0.3 ml. The bladder catheter was connected to a pressure transducer, and the signals of the transducer were sent to a computer via an amplifier (blood pressure amplification unit AP-641G; NIHON KOHDEN) and an analog-to-digital converter (BIOPAC; MP100), and recorded on a hard disc. The data were analyzed on a computer using software (BIOPAC; AcqKnowledge). The exposed abdominal muscle was electrostimulated using an electrostimulator (SEN-3301; NIHON KODEN) and an isolator (SS-202J; NIHON KODEN), and the presence or absence of incontinence from the meatus urethra was observed. The electrostimulation was applied at a voltage of 2.5-50 V, duration of 0.5 milisec, and frequency 50 Hz for 1 sec, thereby gradually increasing the intravesical pressure. The peak intravesical pressure during stimulation of the abdominal wall was measured and, of the trials with observed incontinence, the lowest peak intravesical pressure was defined as the leak point pressure. Serotonin 5-HT receptor agonist, WAY-161503 (5-HT2C receptor agonist), WAY-163909 (5-HT2C receptor agonist), DOI (5-HT2A/2B/2C receptor agonist), mCPP (5-HT2B/2C receptor partial agonist), eltoprazine (5-HT1A/1B/2C receptor partial agonist), 8-OH-DPAT (5-HT1A receptor agonist), sumatryptan (5-HT1B/1D receptor agonist) and BW723C86 (5-HT2B receptor agonist) were intravenously administered, and the leak point pressure was compared before and after the administration. DOI, mCPP and eltoprazine were dissolved in saline, and other drugs were dissolved in DMA/PEG400 (1:1), and they were intravenously administered at 1 ml/kg and 0.5 mg/kg, respectively. Depending on the experiment, RS-102221 (serotonin 5-HT2C receptor antagonist) or SB221284 (serotonin 5-HT2B/2C receptor antagonist) was intravenously administered 5 min before WAY-161503 or WAY-163909 administration, and an antagonistic effect against the WAY-161503 or WAY-163909-induced increment of the leak point pressure was examined. RS-102221 and SB221284 were both dissolved in DMA/PEG400 (1:1) and intravenously administered at 0.5 ml/kg.

[2] = tested on: urethane-anesthetized female rats; assay: Leak point pressure by abdominal wall-electrically stimulating method, serotonin 5-HT receptor agonists (Example 3); settings: for leak point pressure after drug administration / leak point pressure increase / leak point pressure before drug administration: i.v., mean ± SEM; for leak point pressure before drug administration: baseline
Method: as §1

[3] = tested on: urethane-anesthetized female rats; assay: Leak point pressure by abdominal wall electrostimulation, rats with nerve to iliococcygeus/pubococcygeus muscle transected on one side (Example 2); settings: for leak point pressure after drug administration / leak point pressure increase / leak point pressure before drug administration: i.v., mean ± SEM; for leak point pressure before drug administration: baseline
Method: SD female rats (body weight 180-350 g) were anesthetized with urethane (Wako Pure Chemical Industries, Ltd.), and the spinal cord was cut at T8-9 level to eliminate the reflex voiding. In addition, the nerve to the iliococcygeus muscle/pubococcygeus muscle on the one side was transected. During operation, halothane (Takeda Pharmaceutical Company Limited) anesthesia was added when necessary. A catheter (PE-90, Clay Adams) was inserted into the bladder and secured with a ligature, and the incised part of each of the abdominal muscle and skin was closed with sutures. The abdominal skin near the diaphragm was incised at two left and right positions to newly expose the abdominal muscle. An Evans Blue dye (Merck) solution was injected into the bladder, and the bladder volume was adjusted to 0.2-0.3 ml. The bladder catheter was connected to a pressure transducer, and the signals of the transducer were sent to a computer via an amplifier (blood pressure amplification unit AP-641G; NIHON KOHDEN) and an analog-to-digital converter (BIOPAC; MP100), and recorded on a hard disc. The data were analyzed on a computer using software (BIOPAC; AcqKnowledge). The exposed abdominal muscle was electrostimulated using an electrostimulator (SEN-3301; NIHON KODEN) and an isolator (SS-202J; NIHON KODEN), and the presence or absence of incontinence from the urethral orifice was observed. The electrostimulation was applied at a voltage of 3-50 V, duration of 0.05-0.5 milisec, and frequency 50 Hz for 1 sec, thereby gradually increasing the intravesical pressure. The peak intravesical pressure during stimulation of the abdominal wall was measured and, of the trials with observed incontinence, the lowest peak intravesical pressure was defined as the leak point pressure. The leak point pressure was compared before and after the duloxetine and midodrine administration. Duloxetine was dissolved in […] (DMA)/polyethylene glycol 400 (PEG400) (1:1), and intravenously administered at 0.5 ml/kg. Midodrine (hydrochloride, Sigma) was dissolved in saline and intravenously administered at 1 ml/kg.

O=C1Nc2cc(Cl)c(Cl)cc2N2CCNCC12 (stereo not drawn) [WAY-161503]
leak point pressure after drug administration [1]: 76.6 ± 5.4 cmH2O | leak point pressure increase [1]: 27.8 ± 2.8 cmH2O | leak point pressure before drug administration ([1]; baseline): 48.7 ± 5.3 cmH2O | leak point pressure after drug administration ([2]; 0.03 mg/kg): 58.7 ± 6.8 cmH2O | leak point pressure increase ([2]; 0.03 mg/kg): 9.7 ± 2.9 cmH2O | leak point pressure after drug administration ([2]; 0.1 mg/kg): 59.5 ± 4.9 cmH2O | leak point pressure increase ([2]; 0.1 mg/kg): 12.6 ± 2.8 cmH2O | leak point pressure after drug administration ([2]; 0.3 mg/kg): 68.1 ± 6.8 cmH2O | leak point pressure increase ([2]; 0.3 mg/kg): 19.6 ± 4.4 cmH2O | leak point pressure after drug administration ([2]; 1 mg/kg): 80.1 ± 2.7 cmH2O | leak point pressure increase ([2]; 1 mg/kg): 30.7 ± 3.5 cmH2O | leak point pressure before drug administration ([2]; dose group 0.03 mg/kg): 49.0 ± 8.0 cmH2O | leak point pressure before drug administration ([2]; dose group 0.1 mg/kg): 46.9 ± 4.6 cmH2O | leak point pressure before drug administration ([2]; dose group 0.3 mg/kg): 48.5 ± 5.2 cmH2O | leak point pressure before drug administration ([2]; dose group 1 mg/kg): 49.4 ± 1.4 cmH2O | dose at which a significant effect on the leak point pressure was afforded ([2]; intravenous administration): not less than 0.03 mg/kg | effect on leak point pressure ([2]; intravenous administration): dose-dependently increased the leak point pressure

CNCC[C@H](Oc1cccc2ccccc12)c1cccs1 [duloxetine]
leak point pressure after drug administration ([3]; 0.3 mg/kg): 48.3 ± 7.9 cmH2O | leak point pressure increase ([3]; 0.3 mg/kg): 2.4 ± 4.3 cmH2O | leak point pressure after drug administration ([3]; 1 mg/kg): 53.0 ± 4.8 cmH2O | leak point pressure increase ([3]; 1 mg/kg): 8.1 ± 2.3 cmH2O | leak point pressure after drug administration ([3]; 3 mg/kg): 61.4 ± 3.9 cmH2O | leak point pressure increase ([3]; 3 mg/kg): 12.9 ± 3.2 cmH2O | leak point pressure after drug administration ([3]; 10 mg/kg): 53.0 ± 8.8 cmH2O | leak point pressure increase ([3]; 10 mg/kg): 13.0 ± 2.5 cmH2O | leak point pressure before drug administration ([3]; dose group 0.3 mg/kg): 45.9 ± 5.4 cmH2O | leak point pressure before drug administration ([3]; dose group 1 mg/kg): 44.9 ± 5.9 cmH2O | leak point pressure before drug administration ([3]; dose group 3 mg/kg): 48.5 ± 4.8 cmH2O | leak point pressure before drug administration ([3]; dose group 10 mg/kg): 40.0 ± 7.3 cmH2O | effect on leak point pressure, comparison before and after administration ([3]; intravenously administered): significant increase in the leak point pressure
